# Test results: PubChem BioAssay AID330 (DTP/NCI, 2004)
# Where “and” joins values, the source holds several entries; their conditions need not be identical. Equal values may be shown once. Inconclusive results and toxic doses are left out.
# Tested on: P388 leukemia ip, CD2F1 mice, survival T/C
# Test: NCI In Vivo Anticancer Drug Screen. Data for tumor model P388 Leukemia (intraperitoneal) in CD2F1 (CDF1) mice
# Conditions: endpoint: median survival time, higher = longer survival
# Procedure, shortened: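 Mice carrying the transplanted tumor received test compound or vehicle. Survival was recorded in each group, and the value is the treated-group measurement divided by that of the vehicle-treated control group.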
# [1] = dose: 50.0 mg/kg/injection, schedule: Q01DX005 (ip), vehicle: saline with Tween-80
# [2] = dose: 100.0 mg/kg/injection, schedule: Q01DX005 (ip), vehicle: saline with Tween-80
# [3] = dose: 200.0 mg/kg/injection, schedule: Q01DX005 (ip), vehicle: saline with Tween-80
# [4] = dose: 50.0 mg/kg/injection, schedule: Q01DX005 (ip), vehicle: Klucel (hydroxypropylcellulose) (HPC)
# [5] = dose: 100.0 mg/kg/injection, schedule: Q01DX005 (ip), vehicle: Klucel (hydroxypropylcellulose) (HPC)
# [6] = dose: 200.0 mg/kg/injection, schedule: Q01DX005 (ip), vehicle: Klucel (hydroxypropylcellulose) (HPC)
# [7] = dose: 50.0 mg/kg/injection, schedule: Q01DX009 (ip), vehicle: saline with Tween-80
# [8] = dose: 100.0 mg/kg/injection, schedule: Q01DX009 (ip), vehicle: saline with Tween-80
compound,measurement,setting,value
[Cl][Pt+2][Cl].[NH-]c1ccccc1[NH-],T/C,"dose: 6.25 mg/kg/injection, schedule: Q04DX002 (ip), vehicle: saline with Tween-80",163 % of control
same,T/C,"dose: 12.5 mg/kg/injection, schedule: Q04DX002 (ip), vehicle: saline with Tween-80",193 % of control
same,T/C,"dose: 12.5 mg/kg/injection, schedule: Q04DX002 (ip), vehicle: saline",167 % of control
same,T/C,"dose: 25.0 mg/kg/injection, schedule: Q04DX002 (ip), vehicle: saline with Tween-80",110 % of control
O=C(O)c1ccccc1NCc1ccco1,T/C,[1],91 % of control
same,T/C,[2],96 % of control
same,T/C,[3],89 % of control
CC(C)C1NC(C(C)C)N2C(C(C)C)N12 (centres undefined),T/C,"dose: 100.0 mg/kg/injection, schedule: Q01DX001 (ip), vehicle: Klucel (hydroxypropylcellulose) (HPC)",100 % of control
same,T/C,"dose: 200.0 mg/kg/injection, schedule: Q01DX001 (ip), vehicle: Klucel (hydroxypropylcellulose) (HPC)",100 % of control
same,T/C,"dose: 400.0 mg/kg/injection, schedule: Q01DX001 (ip), vehicle: Klucel (hydroxypropylcellulose) (HPC)",106 % of control
NC(=O)COC1OC(CO)C(O)C(O)C1O (centres undefined),T/C,[4],97 % of control
same,T/C,[5],100 % of control
same,T/C,[6],107 % of control
NNC(=O)CNc1ccccc1Br,T/C,"dose: 60.0 mg/kg/injection, schedule: Q01DX005 (ip), vehicle: Klucel (hydroxypropylcellulose) (HPC)",97 % of control
same,T/C,"dose: 120.0 mg/kg/injection, schedule: Q01DX005 (ip), vehicle: Klucel (hydroxypropylcellulose) (HPC)",98 % of control
CCOC(=O)N1Cc2cc3ncccc3nc2C1,T/C,"dose: 25.0 mg/kg/injection, schedule: Q01DX005 (ip), vehicle: Klucel (hydroxypropylcellulose) (HPC)",111 % of control
same,T/C,[4],100 % of control
CN1C2C=C(c3ccccc3)CC1CC2 (centres undefined),T/C,"dose: 0.75 mg/kg/injection, schedule: Q01DX005 (ip), vehicle: saline",94 % of control
same,T/C,"dose: 1.5 mg/kg/injection, schedule: Q01DX005 (ip), vehicle: saline",108 % of control
same,T/C,"dose: 1.56 mg/kg/injection, schedule: Q01DX005 (ip), vehicle: Klucel (hydroxypropylcellulose) (HPC)",105 % of control
same,T/C,"dose: 3.0 mg/kg/injection, schedule: Q01DX005 (ip), vehicle: saline",102 % of control
same,T/C,"dose: 3.12 mg/kg/injection, schedule: Q01DX005 (ip), vehicle: Klucel (hydroxypropylcellulose) (HPC)",103 % of control
CS(=O)(=O)C(c1nc2n(c1O)/C(=N/C(=O)Nc1ccc(Cl)cc1)N=N2)c1nc2n(c1O)/C(=N/C(=O)Nc1ccc(Cl)cc1)N=N2,T/C,"dose: 60.0 mg/kg/injection, schedule: Q01DX005 (ip), vehicle: saline",97 % of control
same,T/C,"dose: 120.0 mg/kg/injection, schedule: Q01DX005 (ip), vehicle: saline",96 % of control
same,T/C,"dose: 240.0 mg/kg/injection, schedule: Q01DX005 (ip), vehicle: saline",95 % of control
O=C1CC2COc3ccc(OCCN4CCCC4)cc3C2=NN1c1ccccc1 (centres undefined),T/C,[1],103 % of control
same,T/C,[2],103 % of control
O=S1(=O)C(CCCCC2=Cc3ccccc3S2(=O)=O)=Cc2ccccc21,T/C,[1],94 % of control
same,T/C,[2],100 % of control
O=C1c2cc([N+](=O)[O-])cc3cc([N+](=O)[O-])cc(c23)C(=O)N1CCCNCCNCCCN1C(=O)c2cc([N+](=O)[O-])cc3cc([N+](=O)[O-])cc(c23)C1=O,T/C,[1],100 % of control
same,T/C,[2],100 % of control
same,T/C,[3],100 % of control
N#Cc1[nH]nc2[nH]c(=S)[nH]c(=S)c12,T/C,"dose: 100.0 mg/kg/injection, schedule: Q04DX002 (ip), vehicle: water",113 % of control
same,T/C,"dose: 200.0 mg/kg/injection, schedule: Q04DX002 (ip), vehicle: water",110 % of control
same,T/C,"dose: 400.0 mg/kg/injection, schedule: Q04DX002 (ip), vehicle: water",102 % of control
CC(=O)Nc1sccc1S(=O)(=O)c1ccsc1NC(C)=O,T/C,"dose: 100.0 mg/kg/injection, schedule: Q04DX002 (ip), vehicle: saline with Tween-80",100 % of control
same,T/C,"dose: 200.0 mg/kg/injection, schedule: Q04DX002 (ip), vehicle: saline with Tween-80",105 % of control
same,T/C,"dose: 400.0 mg/kg/injection, schedule: Q04DX002 (ip), vehicle: saline with Tween-80",98 % of control
NNC(=O)c1cnn(-c2ccc(N(CCO)CCO)nn2)c1N,T/C,"dose: 75.0 mg/kg/injection, schedule: Q01DX005 (ip), vehicle: other",107 % of control
same,T/C,"dose: 150.0 mg/kg/injection, schedule: Q01DX005 (ip), vehicle: other",107 % of control
same,T/C,"dose: 250.0 mg/kg/injection, schedule: Q01DX005 (oral), vehicle: water",104 % of control
same,T/C,"dose: 300.0 mg/kg/injection, schedule: Q01DX005 (ip), vehicle: other",93 % of control
same,T/C,"dose: 500.0 mg/kg/injection, schedule: Q01DX005 (oral), vehicle: water",110 % of control
same,T/C,"dose: 1000.0 mg/kg/injection, schedule: Q01DX005 (oral), vehicle: water",103 % of control
COc1cc2c(c(OC)c1OC)-c1ccc(OC)c(=O)cc1[C@@H](NC(=O)CCl)CC2,T/C,"dose: 0.06 mg/kg/injection, schedule: Q01DX009 (ip), vehicle: Klucel (hydroxypropylcellulose) (HPC)",114 % of control
same,T/C,"dose: 0.12 mg/kg/injection, schedule: Q01DX009 (ip), vehicle: saline with Tween-80",166 % of control
same,T/C,"dose: 0.13 mg/kg/injection, schedule: Q01DX009 (ip), vehicle: saline with Tween-80",156 % of control
same,T/C,"dose: 0.15 mg/kg/injection, schedule: Q01DX009 (ip), vehicle: saline",103 % of control
same,T/C,"dose: 0.25 mg/kg/injection, schedule: Q01DX009 (ip), vehicle: Klucel (hydroxypropylcellulose) (HPC)",115 % of control
same,T/C,"dose: 0.25 mg/kg/injection, schedule: Q01DX009 (ip), vehicle: saline with Tween-80",153 % of control and 173 % of control
same,T/C,"dose: 0.31 mg/kg/injection, schedule: Q01DX009 (ip), vehicle: saline",122 % of control
same,T/C,"dose: 0.5 mg/kg/injection, schedule: Q01DX009 (ip), vehicle: saline with Tween-80",93 % of control
same,T/C,"dose: 1.25 mg/kg/injection, schedule: Q01DX009 (ip), vehicle: saline",167 % of control
O=c1c2ccccc2c(=O)n2n1CCC2O (centres undefined),T/C,"dose: 50.0 mg/kg/injection, schedule: Q01DX009 (ip), vehicle: saline",108 % of control
same,T/C,"dose: 100.0 mg/kg/injection, schedule: Q01DX009 (ip), vehicle: saline",101 % of control
same,T/C,"dose: 200.0 mg/kg/injection, schedule: Q01DX009 (ip), vehicle: saline",101 % of control
COc1ccc2nc(C)cc(N/N=C/c3cccc(C)n3)c2c1,T/C,"dose: 12.5 mg/kg/injection, schedule: Q01DX009 (ip), vehicle: Klucel (hydroxypropylcellulose) (HPC)",99 % of control and 104 % of control
same,T/C,"dose: 25.0 mg/kg/injection, schedule: Q01DX009 (ip), vehicle: Klucel (hydroxypropylcellulose) (HPC)",99 % of control and 105 % of control
same,T/C,"dose: 50.0 mg/kg/injection, schedule: Q01DX009 (ip), vehicle: Klucel (hydroxypropylcellulose) (HPC)",113 % of control and 122 % of control
C=CCC(NC(=O)c1ccccc1)C(=O)O (centres undefined),T/C,[7],100 % of control
same,T/C,[8],98 % of control
same,T/C,"dose: 200.0 mg/kg/injection, schedule: Q01DX009 (ip), vehicle: saline with Tween-80",95 % of control
CC1(C)C2CCC(C2)C1/C=C1/SC(=S)NC1=O (centres undefined),T/C,[4],99 % of control
same,T/C,[5],100 % of control
same,T/C,[6],100 % of control
COC(=O)C1=NOC(Cc2ccccc2)C1 (centres undefined),T/C,"dose: 60.0 mg/kg/injection, schedule: Q01DX005 (ip), vehicle: saline with Tween-80",100 % of control
same,T/C,"dose: 120.0 mg/kg/injection, schedule: Q01DX005 (ip), vehicle: saline with Tween-80",114 % of control
same,T/C,"dose: 240.0 mg/kg/injection, schedule: Q01DX005 (ip), vehicle: saline with Tween-80",96 % of control
COC(CN(C)CC(OC)OC)OC,T/C,"dose: 100.0 mg/kg/injection, schedule: Q04DX003 (ip), vehicle: saline",95 % of control
same,T/C,"dose: 200.0 mg/kg/injection, schedule: Q04DX003 (ip), vehicle: saline",100 % of control
same,T/C,"dose: 400.0 mg/kg/injection, schedule: Q04DX003 (ip), vehicle: saline",100 % of control
CC1=C(CO)C(=O)OC(C(C)C2CCC3C4CC5OC56C(O)CCC(=O)C6(C)C4CCC23C)C1 (centres undefined),T/C,"dose: 11.15 mg/kg/injection, schedule: Q01DX009 (ip), vehicle: saline + alcohol",95 % of control
same,T/C,"dose: 22.3 mg/kg/injection, schedule: Q01DX009 (ip), vehicle: saline + alcohol",99 % of control
same,T/C,"dose: 44.6 mg/kg/injection, schedule: Q01DX009 (ip), vehicle: saline + alcohol",101 % of control
Cc1csc(/N=C2\N/C(=N\c3nc(C)cs3)c3ccccc32)n1,T/C,[7],88 % of control
same,T/C,[8],86 % of control
Cc1cc(N)c2cc(NC(=O)CCCCCC(=O)Nc3ccc4nc(C)cc(N)c4c3)ccc2n1,T/C,"dose: 6.25 mg/kg/injection, schedule: Q01DX009 (ip), vehicle: saline with Tween-80",100 % of control
same,T/C,"dose: 12.5 mg/kg/injection, schedule: Q01DX009 (ip), vehicle: saline with Tween-80",110 % of control
same,T/C,"dose: 25.0 mg/kg/injection, schedule: Q01DX009 (ip), vehicle: saline with Tween-80",118 % of control
